Like-named read-outs stand apart in the source and are kept apart here.
Key:
[1] = target: T1, Ketohexokinase Khk-C (ketohexokinase C), H. sapiens, SEQ ID NO:1 (Homo sapiens, UniProt P50053); conditions: 4 mM ATP, Hepes buffer pH 7, NADH at 340 nm
T1 sequence (P50053 1-298): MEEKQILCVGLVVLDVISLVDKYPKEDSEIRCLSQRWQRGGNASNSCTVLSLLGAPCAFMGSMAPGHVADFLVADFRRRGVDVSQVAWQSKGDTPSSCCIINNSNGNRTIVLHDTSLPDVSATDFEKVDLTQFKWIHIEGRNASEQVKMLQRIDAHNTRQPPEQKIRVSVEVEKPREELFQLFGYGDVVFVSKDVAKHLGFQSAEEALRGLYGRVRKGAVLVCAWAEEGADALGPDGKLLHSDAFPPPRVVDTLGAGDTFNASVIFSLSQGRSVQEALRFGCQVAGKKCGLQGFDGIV

[2] = Kinase kinetic parameters on (D)-xylulose (pyruvate kinase/lactate dehydrogenase coupling reaction); assay type: biochemical
[3] = Kinase kinetic parameters on (L)-ribulose (pyruvate kinase/lactate dehydrogenase coupling reaction); assay type: biochemical
From the text: The same approach was used to characterize these parameters on (L)-ribulose: […]

[4] = target: T2, L-fuculokinase FucK (fuculose kinase), E. coli, SEQ ID NO:5 (Escherichia coli, UniProt P11553); test: Kinetic parameters of candidate kinase by pyruvate kinase/lactate dehydrogenase coupling reaction; assay type: biochemical; conditions: Table 1A; 4 mM ATP, Hepes buffer pH 7, NADH at 340 nm
T2 sequence (P11553 1-472): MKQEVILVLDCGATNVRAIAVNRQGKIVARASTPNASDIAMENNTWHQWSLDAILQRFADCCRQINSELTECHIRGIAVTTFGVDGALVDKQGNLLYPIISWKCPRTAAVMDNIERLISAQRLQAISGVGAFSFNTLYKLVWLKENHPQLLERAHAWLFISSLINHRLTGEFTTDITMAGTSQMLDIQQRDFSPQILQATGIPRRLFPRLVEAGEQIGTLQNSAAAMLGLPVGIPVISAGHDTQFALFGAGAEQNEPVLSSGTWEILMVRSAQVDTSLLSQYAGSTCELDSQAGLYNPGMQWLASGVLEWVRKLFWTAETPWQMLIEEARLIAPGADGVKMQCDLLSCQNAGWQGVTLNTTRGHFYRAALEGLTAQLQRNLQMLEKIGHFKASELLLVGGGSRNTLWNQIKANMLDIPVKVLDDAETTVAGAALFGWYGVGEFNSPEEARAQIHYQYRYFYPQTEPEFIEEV

[5] = target: (L)-rhamnulose kinase RhaB, E. coli, SEQ ID NO:6 (Escherichia coli, UniProt P32171); test: as above; assay type: biochemical; conditions: Table 1A; 4 mM ATP, Hepes buffer pH 7, NADH at 340 nm
Sequence of (L)-rhamnulose kinase RhaB, E. coli, SEQ ID NO:6 (P32171 whole entry): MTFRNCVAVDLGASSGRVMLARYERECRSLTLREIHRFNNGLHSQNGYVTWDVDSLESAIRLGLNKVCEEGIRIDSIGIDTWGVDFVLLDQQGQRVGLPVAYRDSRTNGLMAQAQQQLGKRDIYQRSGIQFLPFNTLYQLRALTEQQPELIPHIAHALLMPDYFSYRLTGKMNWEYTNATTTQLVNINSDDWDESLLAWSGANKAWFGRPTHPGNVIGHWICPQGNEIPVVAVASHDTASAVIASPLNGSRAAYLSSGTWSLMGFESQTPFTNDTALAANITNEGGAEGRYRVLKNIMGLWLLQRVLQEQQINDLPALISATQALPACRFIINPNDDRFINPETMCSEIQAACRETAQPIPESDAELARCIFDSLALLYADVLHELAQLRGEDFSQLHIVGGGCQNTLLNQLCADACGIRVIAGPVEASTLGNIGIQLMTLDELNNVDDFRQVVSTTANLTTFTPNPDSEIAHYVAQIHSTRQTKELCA

[6] = target: T3, Fructose-16bP aldolase Aldo-B (aldolase B), H. sapiens, SEQ ID NO:2 (Homo sapiens, UniProt P05062); test: Kinetic parameters of candidate aldolase by coupled NADH consumption assay; assay type: biochemical; conditions: Hepes buffer pH 7, NADH consumption at 340 nm
T3 sequence (P05062 1-364): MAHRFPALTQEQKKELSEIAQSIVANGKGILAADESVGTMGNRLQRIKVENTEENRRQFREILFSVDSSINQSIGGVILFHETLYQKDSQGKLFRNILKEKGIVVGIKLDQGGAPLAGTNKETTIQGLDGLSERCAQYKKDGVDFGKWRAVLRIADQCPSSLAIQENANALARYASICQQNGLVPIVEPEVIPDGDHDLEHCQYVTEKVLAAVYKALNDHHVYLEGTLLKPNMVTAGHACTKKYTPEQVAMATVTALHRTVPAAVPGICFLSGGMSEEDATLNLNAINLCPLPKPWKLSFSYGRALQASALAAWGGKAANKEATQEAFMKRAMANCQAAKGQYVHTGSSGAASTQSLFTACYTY
Method: (§1) The cloning of the candidate aldolases was done by amplifying aldoB, fbaB and agaY by PCR (using, respectively, the primer pairs P5/P6, P7/P8 and P11/P12 listed in table 3). This amplification was performed from the plasmid peX-A-aldoB carrying aldoB with codon optimization (Eurofins) or from the E. coli genomic DNA for fbaB and agaY, respectively. The fragments were then cloned in pGEM (Invitrogen). […] The ligation product is transformed in the E. coli strain BL21(DE3).

[7] = target: T4, Fructose-16bP aldolase FbaB (fructose-1,6 bisphosphate aldolase B), E. coli, SEQ ID NO:9 (Escherichia coli, UniProt P0A991); test: as above; assay type: biochemical; conditions: Hepes buffer pH 7, NADH consumption at 340 nm
T4 sequence (P0A991 1-350): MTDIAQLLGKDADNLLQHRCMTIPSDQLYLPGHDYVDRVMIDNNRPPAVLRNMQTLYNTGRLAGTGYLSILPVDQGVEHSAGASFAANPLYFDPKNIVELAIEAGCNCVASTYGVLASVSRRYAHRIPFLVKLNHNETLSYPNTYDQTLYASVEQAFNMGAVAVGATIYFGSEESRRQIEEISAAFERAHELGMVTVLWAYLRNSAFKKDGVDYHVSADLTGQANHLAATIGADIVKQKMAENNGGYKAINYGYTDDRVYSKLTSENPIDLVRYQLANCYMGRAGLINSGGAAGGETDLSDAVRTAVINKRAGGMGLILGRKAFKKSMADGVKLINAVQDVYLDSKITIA
Method: as §1

[8] = Aldolase kinetic parameters on (D)-xylulose-1-phosphate (NADH-coupled assay); assay type: biochemical
[9] = substrate: O=P(O)(O)OC[C@H]1OC(O)(COP(=O)(O)O)[C@@H](O)[C@@H]1O; test: purified protein, by the assay type; conditions: other: Hepes buffer pH 7, NADH consumption at 340 nm, 37.0 °C
[10] = Aldolase kinetic parameters on (L)-ribulose-1-phosphate (NADH-coupled assay); assay type: biochemical
From the text: (L)-ribulose-1 kinase: (L)-ribulose+ATP→(L)-ribulose-1P+ADP (L)-ribulose-1P aldolase: (L)-ribulose-1P→DHAP+glycolaldehyde Glycerol-3P dehydrogenase: DHAP+NADH→Glycerol-3P+NAD

[11] = substrate: C[C@H](O)[C@@H](O)[C@@H](O)C(=O)CO; test: Kinetic parameters of candidate kinase by pyruvate kinase/lactate dehydrogenase coupling reaction; assay type: biochemical, E. coli; conditions: other: Table 1A, 4 mM ATP, Hepes buffer pH 7, NADH at 340 nm, 37.0 °C

Question: What does the source list for `O=C(CO)[C@@H](O)[C@@H](O)CO` [(L)-ribulose]?
Answer: Km ([1]; Table 1B): 550 µM; Vmax ([1]; Table 1B): 3.5 U/mg

Question: For “Khk-C: isoform C of ketohexokinase of H. sapiens, encoded by khkC gene SEQ ID NO:1, expressed from pET28a and purified”, which “functional on (D)-xylulose” value [2] is on record?
Answer: functional

Question: What about the “functional on (L)-ribulose” value [3] of the same molecule?
Answer: functional

Question: What does the source list for `OCC1(O)OC[C@@H](O)[C@@H](O)[C@@H]1O` (stereo partly drawn) [fructose]?
Answer: Km ([1]; Table 1A): 720 µM; Vmax ([1]; Table 1A): 6 U/mg; Km ([1]; Table 1B): 310 ± 100 µM; Vmax ([1]; Table 1B): 6.59 ± 1.4 U/mg

Question: Which Km ([1]; Table 1A) does the source give for `O=C(CO)[C@@H](O)[C@H](O)CO` [(D)-xylulose] here?
Answer: 600 µM

Question: What about the Vmax ([1]; Table 1A) of the same molecule?
Answer: 3.1 U/mg

Question: And the Km [4]?
Answer: ns

Question: What about the Vmax [4] of the same molecule?
Answer: 0.1 U/mg

Question: What about the Km [5] of the same molecule?
Answer: ns

Question: What about the Vmax [5] of the same molecule?
Answer: 18.7 U/mg

Question: With `O=C(COP(=O)(O)O)[C@@H](O)[C@H](O)CO` [(D)-Xylulose-1P, (D)-xylulose-1-phosphate] as the molecule, how does the Vmax [6] read?
Answer: 0.81 ± 0.2 U/mg

Question: And the Vmax [7]?
Answer: 0.18 ± 0.04 U/mg

Question: Which results are given for `O=C(COP(=O)(O)O)[C@@H](O)[C@@H](O)CO` [(L)-Ribulose-1P, (L)-ribulose-1-phosphate]?
Answer: Vmax [6]: 0.00 U/mg; Vmax [7]: 0.06 ± 0.01 U/mg

B1: Fructose-16bP aldolase Aldo-B (aldolase B), H. sapiens, SEQ ID NO:2 (Homo sapiens) (protein)
chain: MAHRFPALTQEQKKELSEIAQSIVANGKGILAADESVGTMGNRLQRIKVENTEENRRQFREILFSVDSSINQSIGGVILFHETLYQKDSQGKLFRNILKEKGIVVGIKLDQGGAPLAGTNKETTIQGLDGLSERCAQYKKDGVDFGKWRAVLRIADQCPSSLAIQENANALARYASICQQNGLVPIVEPEVIPDGDHDLEHCQYVTEKVLAAVYKALNDHHVYLEGTLLKPNMVTAGHACTKKYTPEQVAMATVTALHRTVPAAVPGICFLSGGMSEEDATLNLNAINLCPLPKPWKLSFSYGRALQASALAAWGGKAANKEATQEAFMKRAMANCQAAKGQYVHTGSSGAASTQSLFTACYTY
Question: Which “activity on (D)-xylulose-1P” value [8] does the source give for B1 here?
Answer: has an activity

Question: What about the Km [9] of the same molecule?
Answer: 30 ± 10 µM

Question: And the Vmax [9]?
Answer: 0.46 ± 0.05 U/mg

B2: Fructose-16bP aldolase FbaB (fructose-1,6 bisphosphate aldolase B), E. coli, SEQ ID NO:9 (Escherichia coli K-12) (protein)
chain: MTDIAQLLGKDADNLLQHRCMTIPSDQLYLPGHDYVDRVMIDNNRPPAVLRNMQTLYNTGRLAGTGYLSILPVDQGVEHSAGASFAANPLYFDPKNIVELAIEAGCNCVASTYGVLASVSRRYAHRIPFLVKLNHNETLSYPNTYDQTLYASVEQAFNMGAVAVGATIYFGSEESRRQIEEISAAFERAHELGMVTVLWAYLRNSAFKKDGVDYHVSADLTGQANHLAATIGADIVKQKMAENNGGYKAINYGYTDDRVYSKLTSENPIDLVRYQLANCYMGRAGLINSGGAAGGETDLSDAVRTAVINKRAGGMGLILGRKAFKKSMADGVKLINAVQDVYLDSKITIA
Question: With B2 as the molecule, how does the “activity on (L)-ribulose-1P” value [10] read?
Answer: has an activity

Question: What about the “activity on (D)-xylulose-1P” value [8] of the same molecule?
Answer: has an activity

Question: What about the Km [9] of the same molecule?
Answer: 330 ± 70 µM

Question: And the Vmax [9]?
Answer: 0.52 ± 0.1 U/mg

B3: L-fuculokinase FucK (fuculose kinase), E. coli, SEQ ID NO:5 (Escherichia coli K-12) (protein)
chain: MKQEVILVLDCGATNVRAIAVNRQGKIVARASTPNASDIAMENNTWHQWSLDAILQRFADCCRQINSELTECHIRGIAVTTFGVDGALVDKQGNLLYPIISWKCPRTAAVMDNIERLISAQRLQAISGVGAFSFNTLYKLVWLKENHPQLLERAHAWLFISSLINHRLTGEFTTDITMAGTSQMLDIQQRDFSPQILQATGIPRRLFPRLVEAGEQIGTLQNSAAAMLGLPVGIPVISAGHDTQFALFGAGAEQNEPVLSSGTWEILMVRSAQVDTSLLSQYAGSTCELDSQAGLYNPGMQWLASGVLEWVRKLFWTAETPWQMLIEEARLIAPGADGVKMQCDLLSCQNAGWQGVTLNTTRGHFYRAALEGLTAQLQRNLQMLEKIGHFKASELLLVGGGSRNTLWNQIKANMLDIPVKVLDDAETTVAGAALFGWYGVGEFNSPEEARAQIHYQYRYFYPQTEPEFIEEV
Question: Which Km [11] does the source give for B3 here?
Answer: 60 µM

Question: And the Vmax [11]?
Answer: 20 U/mg

— patent US10961551B2, “Process for producing at least one metabolite of interest by conversion of a pentose in a microorganism” (INSTITUT NATIONAL DE LA RECHERCHE AGRONOMIQUE—INRA, priority 2014, dated 2021)
